{"source": "patent US20240361317A1", "about": "“PROBES BASED ON VOLATILE ORGANIC COMPOUNDS AND USES THEREOF FOR THE DIAGNOSIS AND PROGNOSIS OF PATHOLOGICAL CONDITIONS” (Centre National de la Recherche Scientifique, priority 2021, published 2024)", "key": {"α-Mannosidase": {"system": "α-Mannosidase", "assay": "Plasma protocol: labeled ethanol released in headspace of plasma after adding probe", "type": "biochemical, human", "settings": "Ethanol-D5; Cocktail 3; 10^−3/10^−4 mol·L^−1; Splitless", "text": "(§1) In advance, the enzymatic activities present in the blood samples of 7 healthy volunteers aged 20 to 30 years were studied by means of two cocktails of distinct probes (Table 6). This study had the objective (1) to set the final composition of the cocktails, (2) to define the concentrations of the probes to add to blood samples to obtain a significant isotope response knowing that this response would not be linked to spontaneous hydrolysis of the corresponding probes, (3) to define the optimal kinetic point, (4) to have an idea of the range of response of the isotopes of ethanol in healthy plasma samples.\n(§2) Furthermore, two samples per patient were carried out in order to study the potential impact on the enzymatic activities here targeted of holding the samples at room temperature for several hours (an action which can take place in hospital conditions). Thus, the first sample was transformed into plasma and then frozen in the hour following the blood sampling. The second was reserved for 5 h at […], before treatment and then freezing. The samples were all stored at −20° C. until analysis.\n(§3) According to the plasma protocol described above, the probes were used to detect the six enzymatic activities in these samples. […] The VOCs trapped on the SPME fiber are then analyzed by GC-TQMS according to the parameters defined in Tables 4 and 5. […]"}, "[1]": {"biological_target": "T1, β-glucuronidase of E. coli (Escherichia coli, UniProt P05804)", "T1 construct": "purchased Sigma Aldrich", "T1 sequence (P05804 whole entry)": "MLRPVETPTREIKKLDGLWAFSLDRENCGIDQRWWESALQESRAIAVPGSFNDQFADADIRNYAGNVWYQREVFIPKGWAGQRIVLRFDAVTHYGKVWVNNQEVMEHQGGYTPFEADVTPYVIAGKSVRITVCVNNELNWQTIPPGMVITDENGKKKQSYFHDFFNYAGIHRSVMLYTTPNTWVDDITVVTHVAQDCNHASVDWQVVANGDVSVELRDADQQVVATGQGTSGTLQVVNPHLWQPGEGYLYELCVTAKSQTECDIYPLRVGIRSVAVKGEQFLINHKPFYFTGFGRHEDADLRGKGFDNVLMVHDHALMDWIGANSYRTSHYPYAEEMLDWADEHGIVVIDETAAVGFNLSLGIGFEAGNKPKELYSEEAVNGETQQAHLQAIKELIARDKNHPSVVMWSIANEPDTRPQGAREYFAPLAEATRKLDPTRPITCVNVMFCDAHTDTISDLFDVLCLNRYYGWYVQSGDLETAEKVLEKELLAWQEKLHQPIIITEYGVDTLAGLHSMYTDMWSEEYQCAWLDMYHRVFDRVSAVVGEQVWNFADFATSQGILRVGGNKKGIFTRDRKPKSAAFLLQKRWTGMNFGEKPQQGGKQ", "assay": "Limit of detection of model β-glucuronidase in plasma matrix with the VOC probe (SPME, GC-TQMS of ethanol-D5)", "type": "biochemical", "protocol": "(§4) The plasma (approximately […]) is extracted and stored at −20° C. until analysis. An aliquot of 25 μL of plasma is sampled and inserted into a […] with an insert. This biological sample is added to 50 μL of acetate buffer solution (pH 5), protease inhibitor (1×) and 25 μL probe D5-ethyl-β-D-glucuronide at […]. After hermetic closure and agitation to the vortex of the vial, an SPME (SPME in semi-polar phase of the Car/PDMS, 1 cm long and 75 μm thick type with a 24 ga needle; Supelco) of the gas phase above the sample of a duration of 30 mi is carried out after 2 h, 4 h and 7 h of reaction. Each kinetic point requires a vial reaction, and is carried out in duplicate. The VOCs trapped on the SPME fiber are then analyzed by G-TQMS. GC-TMS detection of the ethanol isotopes (thus including ethanol-D5) is carried out with gas chromatography coupled to a triple quadrupole equipped with an E1 source (TSQ 9000, Thermo Fisher Scientific). The system is controlled by the software TSQ 9000 and the results are analyzed with the Xcalibur software (Thermo Fisher Scientific).\nThe limit of detection (LOD) of a model enzyme (β-glucuronidase of E. coli; liquid solution 50% glycerol, 140 U·mL^−1; Sigma Aldrich) in plasma matrix in the presence of probe D5-ethyl-β-D-glucuronide was then determined. For this, a plasma sample for which the activity of endogenous β-glucuronidase was not detectable, was added to enzyme concentrations ranging from […] to 1.10^−13 mol·L ^−1. The amount of ethanol-D5 released was monitored before adding probe and then after 2.5, 4.5 and 7.5 h of reaction at 30° C."}, "β-glucuronidase [2]": {"biological_target": "T2, β-glucuronidase (Homo sapiens, UniProt P08236)", "T2 construct": "from tissue; host or cells: human blood plasma", "T2 sequence (P08236 23-651)": "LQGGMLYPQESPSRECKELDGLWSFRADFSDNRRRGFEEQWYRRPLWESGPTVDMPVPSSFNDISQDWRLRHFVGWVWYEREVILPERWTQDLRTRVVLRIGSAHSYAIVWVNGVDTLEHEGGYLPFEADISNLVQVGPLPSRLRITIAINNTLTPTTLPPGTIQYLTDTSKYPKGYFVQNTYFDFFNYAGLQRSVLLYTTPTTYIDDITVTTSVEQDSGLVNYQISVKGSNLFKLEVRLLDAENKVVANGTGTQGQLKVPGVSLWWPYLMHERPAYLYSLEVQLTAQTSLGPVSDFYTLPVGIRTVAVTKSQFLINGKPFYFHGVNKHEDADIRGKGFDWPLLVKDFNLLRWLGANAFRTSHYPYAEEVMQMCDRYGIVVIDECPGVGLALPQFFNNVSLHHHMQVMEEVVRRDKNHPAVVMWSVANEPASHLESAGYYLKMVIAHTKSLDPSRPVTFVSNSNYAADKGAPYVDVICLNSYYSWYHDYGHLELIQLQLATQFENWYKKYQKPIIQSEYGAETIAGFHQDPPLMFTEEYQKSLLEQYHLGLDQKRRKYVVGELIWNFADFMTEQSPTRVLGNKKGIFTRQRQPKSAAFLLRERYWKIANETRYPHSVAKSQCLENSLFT", "assay": "Plasma protocol: labeled ethanol released in headspace of plasma after adding probe", "type": "biochemical", "protocol": "as §4\nBlood samples were taken by the caregiver associated with the oncological service, then collected and pretreated with the CIC. This study included samples of plasma taken from 11 patients suffering from breast cancer and 11 patients suffering from lung cancer.\nThese patients were diagnosed, but had at the time of sampling not yet received treatment. Their response was compared to that obtained from the plasma of 4 healthy patients. The results were compared to an experimental blank wherein the probe was added, but the enzyme was not present (FIG. 3). […]\nAfter adding the 4 probes (according to the above protocol), the quantity of the 4 isotopes of the ethanol released above the samples of the patients was measured over time. […]\nas §3"}, "[3]": {"system": "β-glucuronidase present in the extracellular matrix", "assay": "Ethanol-D5 in headspace of mouse tumor (MDA-MB-231, KB) and healthy liver biopsies after adding probe", "settings": "probe 10^−9, 10^−8 and 10^−6 M", "protocol": "Thus, tests during which the tumoral and healthy biopsies were placed in the presence of decreasing concentrations of D5-ethyl-β-D-glucuronide were carried out. The probe concentration retained corresponded to the concentration for which no response of healthy tissues was obtained, whereas an enzymatic response was observed on cancer tissues.\nIn the context of this work, two tumor biopsies, taken on mouse models, were studied (MDA-MB-231: human breast cancer cells, KB: human nasopharynx cancer cells). Two mouse liver biopsies were used as healthy tissues. Probe solutions at 10^−7, 10^−6, 10^−4 and 10^−2 M were prepared in a PBS buffer (137 mM NaCl, 2.7 mM KCl, 10 mM Na2HPO4, 1.8 mM KH2PO4, pH 7.4).\nThe biopsies were rinsed with 500 μL of PBS and then placed in a vial with an insert of 2 mL. A volume of 297 μL of PBS was added to the vial. The volatile molecules present in the headspace of the vial were trapped for 30 min in order to ensure that no ethanol-D5 was detected. Then 3 μL of probe at […] were added (final probe concentration in the vial of […]). After hermetic closure and vortex agitation, the volatile compounds were preconcentrated on SPME fiber (Car/PDMS, Supelco) for 30 min and then analyzed by GC-TQMS (analysis conditions described in Table 2)."}, "N-acetyl glucosaminidase": {"system": "N-acetyl glucosaminidase", "assay": "Specificity study: hydrolysis of probes by the enzyme", "type": "biochemical", "protocol": "(§5) The detection performances of this compound in the presence of ethanol and ethanol-D5 were then verified. […] The detection ranges of ethanol-D5 and ethanol-^13C-D5 were then carried out under SPME sampling conditions developed for biological samples (30 min of sampling at 30° C.). The two isotopes were present in mixtures in solution. The limits of detection obtained are respectively […]. The SPME-GC-TQMS method therefore allows a sharp differentiation of the two isotopes according to their mass fragmentation. An experimental study was then carried out in order to evaluate the affinity of the D5-ethyl-β-D-glucuronide and ^13C-D5-ethyl-N-acetylglucosamine for their respective enzyme (β-glucuronidase and N-acetyl glucosaminidase). For this, the efficacy of hydrolysis of each of these enzymes was studied in the presence of their respective probe (FIG. 6) then in the presence of the substrate probe of its partner (FIG. 7). […] In the presence of the two substrates, each enzyme gives a signal only for the probe specific to it (FIG. 8)."}, "β-glucuronidase [4]": {"biological_target": "β-glucuronidase (Escherichia coli, UniProt P05804)", "sequence (P05804 whole entry)": "as the sequence (P05804 whole entry) above", "assay": "Specificity study: hydrolysis of probes by the enzyme", "type": "biochemical", "protocol": "as §5"}, "[5]": {"assay": "Spontaneous hydrolysis of probes in buffer solution / during the reaction", "type": "physicochemical", "settings": "acetate buffer, maximum concentration", "protocol": "According to the plasma protocol described above, the probes were used to detect the six enzymatic activities in these samples. To summarize, an aliquot of 25 μL of plasma will be sampled and inserted into a 2 mL vial with an insert. This biological sample was added from 61.4 μL buffer solution (pH 5), 3.6 μL of protease inhibitor (1×) and 10 μL of one or the other of the cocktails. After hermetic closure and agitation to the vortex of the vial, an SPME (SPME in semi-polar phase of the Car/PDMS, 1 cm long and 75 μm thick type with a 24 ga needle, Supelco) of the gas phase above the sample of a duration of 30 min will be carried out after 2 h, 4 h and 7 h of reaction. Each kinetic point requires a vial reaction, and was carried out in duplicate. The VOCs trapped on the SPME fiber are then analyzed by GC-TQMS according to the parameters defined in Tables 4 and 5. Blank cocktails (cocktails in acetate buffer with no plasma) and plasma blanks (plasmas with an acetate buffer without cocktail) were carried out every day of analysis.\nThe responses of the probes in the plasma samples were compared to their responses in so-called “blank” samples and corresponding to the probes added to the acetate buffer alone."}, "α-Glucosidase": {"system": "α-Glucosidase", "assay": "Plasma protocol: labeled ethanol released in headspace of plasma after adding probe", "type": "biochemical, human", "settings": "Ethanol-D4; Cocktail 1; 10^−3/10^−4 mol·L^−1; Splitless", "text": "as §1, §2, §3"}}}
{"molecule": "CCC[C@H]1C[C@H](CC)[C@@H](C)[C@H](C)[C@@H]1C", "note": "[drawing 26]", "values": [{"measurement": "Plasma response range (u.a.)", "setting": "α-Mannosidase", "value": "1000-50000 u.a."}]}
{"molecule": "[2H]C([2H])([2H])C([2H])([2H])O[C@@H]1O[C@H](C(=O)O)[C@@H](O)[C@H](O)[C@H]1O", "note": "[D5-ethyl-β-D-glucuronide]", "values": [{"measurement": "LOD lower than threshold value of the reference detection method (para-nitrophenol glucuronide, UV)", "setting": "[1]", "value": 100, "unit": "times"}, {"measurement": "minimum quantity of detectable enzyme", "setting": "[1]; plasma matrix", "value": "1.10^−18 mol"}, {"measurement": "concentration at which β-glucuronidase can be detected in plasma", "setting": "[1]; plasma, first results", "value": "less than 5.10^−13 M"}, {"measurement": "amount of ethanol-D5 released above plasma of patients with cancer compared to blanks and healthy patients", "setting": "β-glucuronidase [2]; 11 breast cancer, 11 lung cancer patients, 4 healthy patients", "value": "significantly higher"}, {"measurement": "discernment between healthy patients and cancer patients", "setting": "β-glucuronidase [2]; cocktail of 4 probes, plasma of breast and lung cancer patients vs 4 healthy", "value": "allow clear discernment between healthy patients and cancer patients"}, {"measurement": "ethanol-D5 release for cancer tissues", "setting": "[3]; MDA-MB-231 and KB tumor biopsies", "value": "release of this isotope was detected"}, {"measurement": "ethanol-D5 response on healthy tissues", "setting": "[3]; mouse liver biopsies", "value": "no response"}, {"measurement": "hydrolysis of probe by N-acetyl glucosaminidase (labeled ethanol signal)", "setting": "N-acetyl glucosaminidase", "value": "does not hydrolyze"}, {"measurement": "hydrolysis of probe by β-glucuronidase (labeled ethanol signal)", "setting": "β-glucuronidase [4]", "value": "has hydrolyzed its own probe"}, {"measurement": "spontaneous hydrolysis when placing in buffer solution", "setting": "[5]", "value": "significant spontaneous hydrolysis"}]}
{"molecule": "CCC[C@H]1C[C@H](CC)[C@@H](C)[C@H](C)[C@@H]1C", "note": "[drawing 22]", "values": [{"measurement": "Plasma response range (u.a.)", "setting": "α-Glucosidase", "value": "0-3000 u.a."}]}
